Data from ChEMBL document CHEMBL5096202, “Carbon-silicon switch led to the discovery of novel synthetic cannabinoids with therapeutic effects in a mouse model of multiple sclerosis” (Eur J Med Chem, 2021).
Calls of active or inactive are those of the source. The calls are words filed in the database; no cut-off is given here.

Assays:
Cannabinoid receptor 1 [1] = target: T1, Cannabinoid receptor 1 (Homo sapiens, UniProt P21554); test: Agonist activity at recombinant human CB1 receptor expressed in CHO cells assessed as inhibition of forskolin-induced cAMP accumulation preincubated for 15 mins followed by forskolin stimulation and measured after 15 mins by HTRF assay; type: functional, cell-based
T1 sequence (P21554 whole entry): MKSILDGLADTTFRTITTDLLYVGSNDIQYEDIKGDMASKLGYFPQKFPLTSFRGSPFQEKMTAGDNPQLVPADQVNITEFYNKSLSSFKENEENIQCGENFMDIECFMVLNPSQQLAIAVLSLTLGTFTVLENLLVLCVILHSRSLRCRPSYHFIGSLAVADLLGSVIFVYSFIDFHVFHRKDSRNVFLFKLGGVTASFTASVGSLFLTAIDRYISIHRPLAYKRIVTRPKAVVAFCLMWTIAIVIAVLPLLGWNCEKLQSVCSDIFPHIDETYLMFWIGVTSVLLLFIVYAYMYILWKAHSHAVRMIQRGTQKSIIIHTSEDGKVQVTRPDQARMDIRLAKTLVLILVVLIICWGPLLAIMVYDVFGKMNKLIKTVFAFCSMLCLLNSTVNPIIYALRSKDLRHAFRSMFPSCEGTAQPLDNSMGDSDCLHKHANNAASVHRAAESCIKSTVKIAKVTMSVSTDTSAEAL

Cannabinoid receptor 2 [2] = target: T2, Cannabinoid receptor 2 (Homo sapiens, UniProt P34972); test: Displacement of [3H]-CP55940 from recombinant human CB2 receptor expressed in CHO cells assessed as inhibition constant incubated for 120 mins by radioligand binding assay; type: cell-based
T2 sequence (P34972 whole entry): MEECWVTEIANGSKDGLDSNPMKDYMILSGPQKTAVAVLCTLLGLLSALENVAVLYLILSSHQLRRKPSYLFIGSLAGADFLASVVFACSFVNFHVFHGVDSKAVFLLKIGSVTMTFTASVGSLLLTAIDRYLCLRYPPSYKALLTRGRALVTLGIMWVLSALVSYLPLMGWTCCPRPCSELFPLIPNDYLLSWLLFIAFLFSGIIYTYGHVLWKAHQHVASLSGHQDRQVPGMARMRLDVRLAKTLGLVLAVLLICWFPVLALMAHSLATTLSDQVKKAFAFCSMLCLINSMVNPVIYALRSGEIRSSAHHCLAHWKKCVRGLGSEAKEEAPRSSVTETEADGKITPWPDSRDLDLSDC

Cannabinoid receptor 2 [3] = target: T2, Cannabinoid receptor 2; test: Agonist activity at recombinant human CB2 receptor expressed in CHO cells assessed as inhibition of forskolin-induced cAMP accumulation preincubated for 15 mins followed by forskolin stimulation and measured after 15 mins by HTRF assay; type: functional, cell-based
Cannabinoid receptor 1 [4] = target: T1, Cannabinoid receptor 1; test: Displacement of [3H]-CP55940 from recombinant human CB1 receptor expressed in CHO cells assessed as inhibition constant incubated for 120 mins by radioligand binding assay; type: cell-based
Cannabinoid receptor 2 [5] = target: T2, Cannabinoid receptor 2; test: Agonist activity at recombinant human CB2 receptor expressed in CHO cells assessed as inhibition of forskolin-induced cAMP accumulation by measuring maximum efficacy preincubated for 15 mins followed by forskolin stimulation and measured after 15 mins by HTRF assay relative to control; type: functional, cell-based; conditions: filed as agonist, time 30.0 min
Cannabinoid receptor 1 [6] = target: T1, Cannabinoid receptor 1; test: Agonist activity at recombinant human CB1 receptor expressed in CHO cells assessed as inhibition of forskolin-induced cAMP accumulation by measuring maximum efficacy preincubated for 15 mins followed by forskolin stimulation and measured after 15 mins by HTRF assay relative to control; type: functional, cell-based; conditions: filed as agonist, time 30.0 min
[7] = Metabolic stability in rat liver microsomes assessed as intrinsic clearance; type: ADME, Microsome; conditions: read-out: CLH
Mus musculus [8] = test: (§1) Antiinflammatory activity in MOG (35 to 55 residues)/pertussis toxin-induced experimental autoimmune encephalomyelitis C57BL/6 mouse model assessed as reduction in demyelination in transverse section of lumbar spinal cords at 10 to 30 mg/kg, ip administered starting from day 3 to day 28 by H&E staining based analysis; type: functional, organism-based; conditions: dose 10-30 mg/kg, time 25.0 day
Mus musculus [9] = test: as §1, with “of inflammatory cell infiltration” for “in demyelination”; type: functional, organism-based; conditions: dose 10-30 mg/kg, time 25.0 day
[10] = Toxicity in MOG (35 to 55 residues)/pertussis toxin-induced experimental autoimmune encephalomyelitis C57BL/6 mouse model assessed as tolerance at 30 mg/kg, ip administered once daily starting from day 3 to day 28; type: organism-based; conditions: in vivo, 600 h, time 25 day
[11] = Toxicity in MOG (35 to 55 residues)/pertussis toxin-induced experimental autoimmune encephalomyelitis C57BL/6 mouse model assessed as side effects at 10 to 30 mg/kg, ip administered once daily starting from day 3 to day 28; type: organism-based; conditions: in vivo, 600 h, dose 10-30 mg/kg, time 25 day
[12] = Metabolic stability in mouse liver microsomes assessed as half life; type: ADME, Microsome
[13] = Tmax in C57BL/6 mouse at 10 mg/kg, ip measured upto 24 hrs by LC-MS/MS analysis; type: ADME, organism-based; conditions: in vivo
[14] = Half life in C57BL/6 mouse at 10 mg/kg, ip measured upto 24 hrs by LC-MS/MS analysis; type: ADME, organism-based; conditions: in vivo
[15] = AUCinfinity in C57BL/6 mouse at 10 mg/kg, ip measured upto 24 hrs by LC/MS-MS analysis; type: ADME, organism-based; design: dose 10 mg/kg, time < 24 hrs, route ip; conditions: in vivo
Mus musculus [16] = test: Antiinflammatory activity in MOG (35 to 55 residues)/pertussis toxin-induced experimental autoimmune encephalomyelitis C57BL/6 mouse model assessed as reduction in clinical score administered intraperitoneally starting from day 3 to day 28; type: functional, organism-based; conditions: route ip, time 25.0 day, DDE = dose-dependent effect
[17] = Metabolic stability in mouse liver microsomes assessed as intrinsic clearance; type: ADME, Microsome; conditions: read-out: CLH
Mus musculus [18] = test: as §1, with “of inflammatory cell infiltration” for “in demyelination”, “LFB” for “H&E”; type: functional, organism-based; conditions: dose 10-30 mg/kg, time 25.0 day
[19] = Toxicity in MOG (35 to 55 residues)/pertussis toxin-induced experimental autoimmune encephalomyelitis C57BL/6 mouse model assessed as motor defects at 30 mg/kg, ip administered once daily starting from day 3 to day 28; type: organism-based; conditions: in vivo, 600 h, time 25 day
[20] = AUClast in C57BL/6 mouse at 10 mg/kg, ip measured upto 24 hrs by LC-MS/MS analysis; type: ADME, organism-based; design: time < 24 hrs, dose 10 mg/kg, route ip; conditions: in vivo
Mus musculus [21] = test: as §1, with “infarcted brain proportion” for “demyelination in transverse section of lumbar spinal cords”, “TTC” for “H&E”, “analysis relative to control” for “analysis”; type: functional; design: scale not given: the % may be the effect or the level left; conditions: dose 10-30 mg/kg, time 25 day
[22] = Metabolic stability in human liver microsomes assessed as half life; type: ADME, Microsome
[23] = Cmax in C57BL/6 mouse at 10 mg/kg, ip measured upto 24 hrs by LC-MS/MS analysis; type: ADME, organism-based; design: dose 10 mg/kg, time < 24 hrs, route ip; conditions: in vivo
[24] = Metabolic stability in human liver microsomes assessed as intrinsic clearance; type: ADME, Microsome; conditions: read-out: CLH
[25] = Toxicity in MOG (35 to 55 residues)/pertussis toxin-induced experimental autoimmune encephalomyelitis C57BL/6 mouse model assessed as body weight loss at 10 to 30 mg/kg, ip administered starting from day 3 to day 28; type: organism-based; conditions: in vivo, 600 h, dose 10-30 mg/kg, time 25 day
[26] = Metabolic stability in rat liver microsomes assessed as half life; type: ADME, Microsome
Mus musculus [27] = test: as §1, with “LFB” for “H&E”; type: functional, organism-based; conditions: dose 10-30 mg/kg, time 25.0 day

## CCCC[Si](C)(C)c1cc(O)c2c(c1)OC(C)(C)[C@@H]1CC=C(CO)C[C@@H]21
Cannabinoid receptor 1 [1]
  EC50: 35.2 nM
Cannabinoid receptor 2 [2]
  Ki: 0.65 nM
Cannabinoid receptor 2 [3]
  EC50: 8340 nM
Cannabinoid receptor 1 [4]
  Ki: 2.28 nM
Cannabinoid receptor 2 [5]
  Emax: 91.2%
Cannabinoid receptor 1 [6]
  Emax: 102%

## CCCCCC[Si](C)(C)c1cc(O)c(C2CCCC2)c(OC)c1
Cannabinoid receptor 1 [1]
  EC50: 709 nM
Cannabinoid receptor 2 [2]
  Ki: 167 nM
Cannabinoid receptor 2 [3]
  EC50: 236 nM
Cannabinoid receptor 1 [4]
  Ki: 74.8 nM
Cannabinoid receptor 2 [5]
  Emax: 89.8%
Cannabinoid receptor 1 [6]
  Emax: 81.6%

## CCCC[Si](C)(C)c1cc(OC)c([C@H]2C=C(CO)[C@H]3C[C@@H]2C3(C)C)c(OC)c1
Cannabinoid receptor 2 [2]
  Ki: 227 nM
Cannabinoid receptor 2 [3]
  EC50: 899 nM
Cannabinoid receptor 1 [4]
  Ki: 454 nM
Cannabinoid receptor 2 [5]
  Emax: 83.6%

## CCCC[Si](C)(C)c1cc(O)c2c(c1)OC(C)(C)[C@@H]1CCC(C)=C[C@@H]21
Cannabinoid receptor 1 [1]
  EC50: 13.9 nM
Cannabinoid receptor 2 [2]
  Ki: 1.48 nM
Cannabinoid receptor 2 [3]
  EC50: 65.1 nM
Cannabinoid receptor 1 [4]
  Ki: 2.33 nM
Cannabinoid receptor 2 [5]
  Emax: 95.4%
Cannabinoid receptor 1 [6]
  Emax: 99.6%

## CCCCCC[Si](C)(C)c1cc(O)c2c(c1)OC(C)(C)c1ccc(C)cc1-2
Cannabinoid receptor 1 [1]
  EC50: 12.3 nM
Cannabinoid receptor 2 [2]
  Ki: 2.21 nM
Cannabinoid receptor 2 [3]
  EC50: 32.6 nM
Cannabinoid receptor 1 [4]
  Ki: 0.79 nM
Cannabinoid receptor 2 [5]
  Emax: 862%
Cannabinoid receptor 1 [6]
  Emax: 98.4%

## CCCCCC[Si](C)(C)c1cc(OC)c([C@H]2C=C(CO)[C@H]3C[C@@H]2C3(C)C)c(OC)c1
[7]
  CLint scaled: 42.1 mL/min/kg
Mus musculus [8]
  Activity: Active
Mus musculus [9]
  Activity: Active
[10]
  Activity: Non-Toxic
[11]
  Activity: Non-Toxic
[12]
  half-life: 31.5 min
[13]
  Tmax: 120 min
[14]
  half-life: 407 min
[15]
  AUC(0-inf): 12300 ng·h/mL
Mus musculus [16]
  Activity: Dde
[17]
  CLint scaled: 173 mL/min/kg
Cannabinoid receptor 2 [2]
  Ki: 4930 nM
Mus musculus [18]
  Activity: Active
[19]
  Activity: Non-Toxic
[20]
  AUC(0-t) at 24 h: 11600 ng·h/mL
Cannabinoid receptor 2 [3]
  EC50: 460 nM
Mus musculus [21]
  Activity: 90%
Cannabinoid receptor 1 [4]
  Ki: 2890 nM
[22]
  half-life: 49.7 min
[23]
  Cmax: 2520 ng/mL
[24]
  CLint scaled: 35 mL/min/kg
[25]
  Activity: Non-Toxic
Cannabinoid receptor 2 [5]
  Emax: 90.6%
[26]
  half-life: 58.9 min
Mus musculus [27]
  Activity: Active

## CC[Si](C)(C)c1cc(O)c2c(c1)OC(C)(C)[C@@H]1CCC(C)=C[C@@H]21
Cannabinoid receptor 2 [2]
  Ki: 1070 nM
Cannabinoid receptor 2 [3]
  EC50: 352 nM
Cannabinoid receptor 1 [4]
  Ki: 19.3 nM
Cannabinoid receptor 2 [5]
  Emax: 84.8%

## CCCC[Si](C)(C)c1cc(O)c(C2CCCC2)c(OC)c1
Cannabinoid receptor 2 [2]
  Ki: 903 nM
Cannabinoid receptor 2 [3]
  EC50: 1000 nM
Cannabinoid receptor 1 [4]
  Ki: 600 nM
Cannabinoid receptor 2 [5]
  Emax: 85.4%

## C=C(C)[C@@H]1CCC(C)=C[C@H]1c1c(O)cc([Si](C)(C)CCCC)cc1O
Cannabinoid receptor 1 [1]
  EC50: 403 nM
Cannabinoid receptor 2 [2]
  Ki: 7.25 nM
Cannabinoid receptor 2 [3]
  EC50: 190 nM
Cannabinoid receptor 1 [4]
  Ki: 15 nM
Cannabinoid receptor 2 [5]
  Emax: 82.7%
Cannabinoid receptor 1 [6]
  Emax: 94.6%

## CCCC[Si](C)(C)c1cc(O)c(C2CCCCCC2)c(O)c1
Cannabinoid receptor 1 [1]
  EC50: 836 nM
Cannabinoid receptor 2 [2]
  Ki: 63.5 nM
Cannabinoid receptor 2 [3]
  EC50: 84.4 nM
Cannabinoid receptor 1 [4]
  Ki: 143 nM
Cannabinoid receptor 2 [5]
  Emax: 93.4%
Cannabinoid receptor 1 [6]
  Emax: 65%

## CCCCCCC(C)(C)c1cc(OC)c([C@H]2C=C(CO)[C@H]3C[C@@H]2C3(C)C)c(OC)c1
[7]
  CLint scaled: 137 mL/min/kg
[12]
  half-life: 7.84 min
[17]
  CLint scaled: 696 mL/min/kg
[22]
  half-life: 20.4 min
[24]
  CLint scaled: 85.4 mL/min/kg
Cannabinoid receptor 2 [5]
  Emax: 101%
[26]
  half-life: 18.2 min

## CCCCCC[Si](C)(C)c1cc(O)c(C2CCCCCC2)c(OC)c1
Cannabinoid receptor 1 [1]
  EC50: 3120 nM
Cannabinoid receptor 2 [2]
  Ki: 67.2 nM
Cannabinoid receptor 2 [3]
  EC50: 82.7 nM
Cannabinoid receptor 1 [4]
  Ki: 182 nM
Cannabinoid receptor 2 [5]
  Emax: 98.7%
Cannabinoid receptor 1 [6]
  Emax: 67.8%

## CCCC[Si](C)(C)c1cc(O)c(C2CCCC2)c(O)c1
Cannabinoid receptor 2 [2]
  Ki: 368 nM
Cannabinoid receptor 2 [3]
  EC50: 53.8 nM
Cannabinoid receptor 1 [4]
  Ki: 464 nM
Cannabinoid receptor 2 [5]
  Emax: 102%

## CCCCCC[Si](C)(C)c1cc(O)c(C2CCCCCC2)c(O)c1
Cannabinoid receptor 1 [1]
  EC50: 129 nM
Cannabinoid receptor 2 [2]
  Ki: 6.53 nM
Cannabinoid receptor 2 [3]
  EC50: 165 nM
Cannabinoid receptor 1 [4]
  Ki: 17.7 nM
Cannabinoid receptor 2 [5]
  Emax: 92%
Cannabinoid receptor 1 [6]
  Emax: 98%
